Read-outs that look alike come from different tables or passages of the source.
Tests used:
[1] = tested on: acrB transposition mutant strain DPD1852; details: LB with 0.2%, 0.3%, 0.4% or 0.6% 1-butanol (w/v), FIG. 3
Protocol: Overnight triplicate cultures of each strain were grown and diluted (1:10) into either LB or LB freshly supplemented with 0.2%, 0.3%. 0.4% or 0.6% 1-butanol (w/v). The growth of each culture was followed for approximately 18 hours.
An additional kinetic growth study was performed as described above.

[2] = tested on: acrB transposon mutant line DPD1852; format: cell-based, E. coli; details: acrB mutation, 18 hr exposure, FIG. 7
Protocol: Growth of the acrB transposon mutant line, DPD1852 (in Example 2), and the parental strain EC100 were compared in the presence of different butanols. Cultures were grown in LB medium at 37° C. to mid-logarithmic phase and then 200 μl was put into microtiter wells of a Bioscreen device that monitors optical density as a function of time. Triplicate wells contained a culture challenged with a specified concentration of a compound. For 2- and isobutanol the concentrations tested were 0, 0.8, 1.2, 1.4, and 1.6% weight percent. For 1-butanol the concentrations were 0, 0.2, 0.3, 0.4, and 0.6% w/v. For 2-butanone (MEK, methylethylketone) the concentrations were 0, 2.5, 3, 3.5 and 4% w/v.

[3] = tested on: acrB deletion line DPD1876; details: acrB mutant, 0.4 and 0.6% 1-butanol, 18 hr, FIG. 6
Protocol: (§1) Shake flask experiments were performed on the acrB rpoZ::kan constructed double mutant line DPD1899, as well as the acrB deletion line DPD1876, the rpoZ::kan line JW3624, and the wild type control BW25113 line. Cultures were grown in LB medium containing 0%, 0.4% or 0.6% 1-butanol in shake flasks. The experiments were performed by inoculating 100 ml of medium in a 250 ml plastic flask with 2 ml of an overnight culture grown from a single colony grown at 37° C. and incubating with shaking for approximately two doubling times (1 hour), to an OD600 between 0.2 and 0.3. Each culture was split into […] in plastic screw top 125 ml flasks and the cultures were maintained at 37° C. in a shaking water bath at 200 rpm. The OD600 was monitored at 0, 30, 90, 120 190, and 260 minutes.
(§2) In the cultures above, a final time point was taken at 18 hr and used to calculate growth yield as a function of 1-butanol challenge. For each line grown in 0, 0.4% or 0.6% 1-butanol, the final 18 hour time point was divided by the no 1-butanol 18 hr time point.

[4] = tested on: acrB rpoZ::kan double mutant line DPD1899; details: 0.4 and 0.6% 1-butanol, 18 hr, FIG. 6
Protocol: as §1, §2

rpoZ::kan line JW3624 = details: rpoZ mutant, 0.4 and 0.6% 1-butanol, 18 hr, FIG. 6
Protocol: as §1, §2

[5] = tested on: wild type control BW25113; details: wild type cells, 0.4 and 0.6% 1-butanol, 18 hr, FIG. 6
Protocol: as §1, §2

E. coli strain EC100 = details: EC100 on solidified LB
Protocol: LB agar media supplemented with butanol was prepared fresh one day before innoculating at an appropriate volume and cooled for 2 hours in a 50° C. water bath. LB agar plates supplemented with butanol were prepared by dispensing 67 mls of melted agar, using a peristaltic pump and sterile Nalgene tubing, into sterile Omni trays with lids (Nunc mfg no. 242811). […] The plates were allowed to cool and set for approximately an hour before they were stored overnight in closed anaerobic chambers at room temperature in the chemical/biological hood. The next morning, the chambers harboring the plates were opened and allowed to air dry for approximately 1 hour before using.
Plates were incubated in a closed chamber at 37° C. for 1 day. The number of colonies arising and their sizes were scored. […] Butanol concentrations of 0.4% and 0.6% were chosen to screen for tolerance.

[6] = tested on: acrA insertion strain JW0452; format: cell-based, E. coli; details: for improved growth over the parental strain: acrA modified strain, 3 hr exposure, LB 37° C.; for tolerance of mutant relative to parent strain: acrA mutant JW0452, FIG. 8
Protocol: (§3) Strains of E. coli K12 EC100 having insertions in either the acrA or acrB coding regions, JW0452 and JW0451 respectively, were obtained from the Keio knockout collection described in Example 4. Growth of these strains was compared in the presence of 2-butanol and isobutanol in relation to the parental strain EC100. Overnight cultures were inoculated with a fresh colony and grown in LB at 37° C. with shaking. The next day the culture was diluted 1:100 into 100 ml of fresh LB in a 1 liter flask and grown for approximately 2 hours. The culture was split into 20 ml aliquots in 125 ml plastic screw top flasks. One culture remained unaltered serving as the no add control, and various concentrations of either 2-butanol or isobutanol were added to the remaining flasks. Absorbance (OD600) was monitored over time. Fractional growth yields were determined after 3 hr of exposure and percent improvement was calculated by subtracting the […] and multiplying by 100.

[7] = tested on: acrB insertion strain JW0451; format: cell-based, E. coli; details: for improved growth over the parental strain: acrB modified strain, 3 hr exposure, LB 37° C.; for tolerance of mutant relative to parent strain: acrB mutant JW0451, FIG. 8
Protocol: as §3

[8] = tested on: tolC transposon insertion mutant JW5503; assay: Shake flask growth of tolC insertion mutant compared with parental strain; format: cell-based, E. coli
Protocol: as §3
In addition, a to/C transposon insertion mutant of the Keio collection, JW5503, was also assayed.

SMILES | tolerance in terms of growth rate relative to wild type EC100 [1] | tolerance (growth improvement over parental EC100) [2] | growth yield (fractional growth) [3] | growth yield (fractional growth) [4] | growth yield (fractional growth) (rpoZ::kan line JW3624) | sensitivity to growth inhibition (fractional growth) [5] | colony size (E. coli strain EC100; 0.6% 1-butanol, 37° C., 1 day) | concentration with no colony formation after overnight incubation (E. coli strain EC100; 37° C.) | concentration from which colonies were progressively smaller (E. coli strain EC100; closed chamber, 37° C., 1 day) [%] | titer (number of colonies arising) (E. coli strain EC100; range of 0 to 0.6% 1-butanol) | improved growth over the parental strain ([6]; 0.6% of the compound) | improved growth over the parental strain ([6]; 0.8% of the compound) | tolerance of mutant relative to parent strain [6] | improved growth over the parental strain ([7]; 0.6% of the compound) | improved growth over the parental strain ([7]; 0.8% of the compound) | tolerance of mutant relative to parent strain [7] | growth response relative to parental strain [8] | improved growth over the parental strain ([6]; 0.4% of the compound) | improved growth over the parental strain ([7]; 0.4% of the compound)
CCCCO [1-butanol] | more tolerant to all of the concentrations of 1-butanol tested than the wild type strain | improved the tolerance | higher growth yields than wild type | even higher growth yield | higher growth yields than wild type | most sensitive to growth inhibition | only pinpoint colonies | ≥ 0.7 % (w/v) | ≥ 0.2 | No change in titer |  |  |  |  |  |  |  |  | 
CCC(C)=O [MEK, 2-butanone] |  | improved the tolerance |  |  |  |  |  |  |  |  |  |  |  |  |  |  |  |  | 
CCC(C)O (stereo not drawn) [2-butanol] |  | improved the tolerance |  |  |  |  |  |  |  |  | about 12% | about 5% | more tolerant | about 24% | about 12% | more tolerant | indistinguishable from the parental strain |  | 
CC(C)CO [isobutanol] |  | improved the tolerance |  |  |  |  |  |  |  |  | about 3.5% |  | more tolerant | about 2.5% |  | more tolerant | indistinguishable from the parental strain | about 18% | about 20%
